Patent US7253177B2, “Synthesis and antimalarial activity of pyrrolo[3,2-f]quinazoline-1,3-diamine derivatives” (United States of America as Represented by the Secretary of …, priority 2004, dated 2007)
Like-named read-outs stand apart in the source and are kept apart here.

How the values were obtained:
[1] = test system: Plasmodium berghei (KBG-173 strain); assay type: in vivo; conditions: for # Mice Alive Day 30/Total / # Mice Dead/Day Died: oral
Experimental: B. Antimalarial Activities: (a). In Vitro Antimalarial Studies. The in vitro assays were conducted by using a modification of the semiautomated microdilution technique of Desjardins et al and Chulay et al.. Four P. falciparum malaria parasite clones, from CDC Indochina III (W-2), CDC Sierra Leone I (D-6), Southeast Asia Isolates (TM91C235) and RCS (Isolates from Brazil) were utilized in susceptibility testing. They were derived by direct visualization and micromanipulation from patient isolates. The W-2 clone is susceptible to mefloquine but resistant to chloroquine, sulfadoxine, pyrimethamine, and quinine, whereas the D-6 clone is naturally resistant to mefloquine but susceptible to chloroquine, sulfadoxine, pyrimethamine and quinine. Test compounds were initially dissolved in DMSO and diluted 400 fold in RPMI 1640 culture medium supplemented with 25 mM Hepes, 32 mM NaHCO3 and 10% Albumax I (Gibco BRL, Grand Island, N.Y.). These solutions were subsequently serially diluted two-fold with a Biomek 1000 (Beckman, Fullerton, Calif.) over 11 different concentrations. The parasites were exposed to serial dilutions of each compound for 48 hrs and incubated at 37° C. with 5% O2, 5% CO2 and 90% N2 prior to the addition of [^3H]hypoxanthine. After a further incubation of 18 hrs, parasite DNA was harvested from each microtiter well using Packard Filtermate 196 Harvester (Meriden, Conn.) onto glass filters. Uptake of [^3H]hypoxanthine was measured with a Packard Topcount Scintillation. Concentration-response data were analyzed by a non-linear regression logistic dose response model and the IC50 values (50% inhibitory concentrations) for each compound were calculated. (Table 3). (b). In Vivo Antimalarial Studies against P. berghei in mice: The in vivo efficacy of the artelinic acid analogs were determined in a modified Thompson test. This test measures the survivability of mice and parasitemia clearance following administration of drug on days 3-5 post infection. In brief, 5×10^6 P. berghei-infected erythrocytes (KBG-173 strain) were inoculated intraperitoneally to female mice that weighed 24-30 g. By day three post-infection, parasitemia ranged from 1.0-3.7%. Each drug, dissolved in 5% sodium bicarbonate, was administered PO twice daily from day 3-5 post-infection. Total doses for each drug ranged from 1.5-384 mg/kg with 8 mice included in each dosage group. The percent suppression of parasitemia in the treated mice compared to the untreated controls was determined for each test compound; the SD-50 (fifty percent suppression dose) and SD-90 were determined from a non-linear regression logistic dose response fit at day 6 parasitemia data. Survival of mice to day 60 post-infection was considered a cure (C). Compounds were considered active (A) when the survival time of the treated mice was greater than twice the control mice, i.e., 12-14 day (Table 4-5). (c). Sporozoite Induced Test Each compound is ground with a mortar & pestle and suspended in 0.5% hydroxyethylcellulose—0.1% Tween 80 for compounds to be administered PO and those given SC are suspended in peanut oil. Each compound is prepared at 3 different dose levels as requested by WRAIR. Compounds are administered either PO or SC to mice once 4 hr before inoculation of sporozoites. Four-week-old male CD-1 mice, purchased from Charles River and weighing 16-17 g, are placed 5 per cage and allowed to acclimate for 4 days before being treated and then inoculated with sporozoites. They are fed food and water ad-lib and maintained at 76° F. with 12 hr light and 12 hr darkness. The cages and water bottles are changed biweekly. The mice are weighed on Days 0, 3 and 6 then biweekly when blood films are taken. Plasmodium yoelii (17×) is used to infect mice that will be used to infect the mosquitoes. Mice are given a single dose of test compound 4 hr before being inoculated intraperitoneally with 2.5×10^5 sporozoites of Plasmodium yoelii on Day 0. […]

P. falciparum FVO = test: Antimalarial activity against P. falciparum in Aotus monkey; assay type: in vivo, Plasmodium falciparum; conditions: 1 mg/kg once a day x three days, cured = parasitemia free for 100 days post treatment
Experimental: (e). Toxicity Study in Aotus monkey: Protocol: Two malaria double cured Aotus weighing 1027-695 grams respectively received single dose of 3 mg/kg orally of the two compounds 2b and 3e. The monkeys were weighed and pre-bleed for CBC and Chemistry (ALT, BUN, Creatinine) determination, and again three, seven and 15 days post treatment. Signs of toxicity such as anorexia, vomiting, diarrhea or behavior changes were recorded. […] (f). Antimalarial Activity against P. falciparum in Aotus monkey: Protocol: Six (6) malaria naive Aotus lemurinus lemurinus (weigh 787-978 grms) were divided into two groups of two Aotus each plus two controls (MN13177 male and MN 13153 male) and infected with 5×10^6 P. falciparum FVO malaria parasites with 1 ml of an appropriate dilution in RPMI media intravenously on the saphenous vein. When their parasitemia reached 5×10^4 parasites/ul, treatment was started. Giemsa-stained thick blood smears were prepared daily with a prick in the ear marginal vein and parasites enumerated by the Earle and Perez method. Group 1 Aotus received 3e at 1 mg/kg once a day×three days. Group 2 Aotus received 2b at 1 mg/kg once a day×three days. The monkeys were weight and pre-bled for CBC and Chemistry (ALT, BUN, Creatinine) determination, and on day 4 post-treatmetne (PT). Bleedings for Pk determinations were carried out on day 1 PT at time 0, 1 hr, 7:30 hr and 24 hr PT. […]

Row | SMILES | # Mice Alive Day 30/Total ([1]; 1.25 mg/kg/day) | # Mice Alive Day 30/Total ([1]; 80-2.5 mg/kg/day) | # Mice Dead/Day Died ([1]; 80-2.5 mg/kg/day) | # Monkey Cured/# Monkey Used, P. falciparum (P. falciparum FVO) | drug-related deaths in mice ([1]; in vivo) | # Mice Alive Day 30/Total ([1]; 220-0.625 mg/kg/day) | # Mice Dead/Day Died ([1]; 220-0.625 mg/kg/day)
1 | CCOC(=O)Nc1nc(NC(=O)OCC)c2c(ccc3c2ccn3Cc2ccccc2C(F)(F)F)n1 [Compound 2b] | 3/5 | 5/5 | None | 2/2 | – | – | –
2 | CC(=O)N(C(C)=O)c1nc(N(C(C)=O)C(C)=O)c2c(ccc3c2ccn3Cc2ccccc2C(F)(F)F)n1 [Compound 3e, 1,3-Bis(diacetylamino)-7-(2-trifluoromethyl)benzyl-7H-pyrrolo[3,2-f]quinazoline] | – | – | – | 2/2 | no drug-related deaths | 5/5 | None
